Active and inactive are the calls of the source. No cut-off for these calls is given here.
How the values were obtained:
[1] = organism: Homo sapiens; experiment: Inhibition of NF-kappaB (unknown origin) expressed in LPS-stimulated Raw 264.7 cells pretreated for 2 hrs measured after 4 hrs of LPS-challenge by luciferase reporter assay; assay type: cell-based
[2] = molecular target: Protein kinase C alpha type (Homo sapiens) (UniProt P17252); experiment: Binding affinity to PKC alpha (unknown origin)
[3] = system: A2780; experiment: Cytotoxicity against human A2780 cells by MTT assay; assay type: functional, cell-based
[4] = molecular target: T1, DNA topoisomerase 1 (Homo sapiens) (UniProt P11387); experiment: Binding affinity to topoisomerase 1 (unknown origin)
T1 sequence (whole entry): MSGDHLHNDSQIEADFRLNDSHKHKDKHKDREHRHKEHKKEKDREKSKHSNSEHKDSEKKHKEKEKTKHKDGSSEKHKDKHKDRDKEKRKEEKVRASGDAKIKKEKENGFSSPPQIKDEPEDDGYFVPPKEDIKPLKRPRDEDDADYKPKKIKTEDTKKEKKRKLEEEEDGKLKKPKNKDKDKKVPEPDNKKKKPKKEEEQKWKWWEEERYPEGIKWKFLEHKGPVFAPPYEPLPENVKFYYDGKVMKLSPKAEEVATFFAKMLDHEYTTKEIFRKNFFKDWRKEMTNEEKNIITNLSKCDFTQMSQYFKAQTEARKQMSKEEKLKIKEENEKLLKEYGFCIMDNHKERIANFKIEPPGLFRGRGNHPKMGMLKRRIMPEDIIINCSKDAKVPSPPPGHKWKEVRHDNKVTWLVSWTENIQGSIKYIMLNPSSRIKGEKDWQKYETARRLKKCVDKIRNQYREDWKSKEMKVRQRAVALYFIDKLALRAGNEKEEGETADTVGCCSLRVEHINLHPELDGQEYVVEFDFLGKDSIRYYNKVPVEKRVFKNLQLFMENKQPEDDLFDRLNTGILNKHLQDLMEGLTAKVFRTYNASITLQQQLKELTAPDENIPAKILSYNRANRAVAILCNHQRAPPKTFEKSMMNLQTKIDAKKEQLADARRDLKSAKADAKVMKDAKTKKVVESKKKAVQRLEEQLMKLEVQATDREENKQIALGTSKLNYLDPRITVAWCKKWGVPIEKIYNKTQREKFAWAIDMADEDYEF

[5] = system: BGC-823; experiment: Cytotoxicity against human BGC823 cells by MTT assay; assay type: functional, cell-based
[6] = system: A549; experiment: Cytotoxicity against human A549 cells by MTT assay; assay type: functional, cell-based
[7] = system: Bel-7402; experiment: Cytotoxicity against human Bel7402 cells by MTT assay; assay type: functional, cell-based
[8] = system: HCT-8; experiment: Cytotoxicity against human HCT8 cells by MTT assay; assay type: functional, cell-based

Activity [2]	Activity [4]	SMILES	inhibition [1]	IC50 [3] [µM]	IC50 [5] [µM]	IC50 [6] [µM]	IC50 [7] [µM]	IC50 [8] [µM]
inactive	inactive	CC(C)[C@H]1C(=O)N[C@@H](C[C@]23C[C@H]4C(=C[C@H]2N(C=O)c2ccccc23)CC[C@H]2C(C)(C)CCC[C@]42C)C(=O)N1C (mixture of isomers) [INDOTERTINE B]	inactive	> 10	> 10	4.88	> 10	6.96
inactive	inactive	C=C1CC[C@H]2C(C)(C)CCC[C@]2(C)[C@H]1C[C@@]12C[C@H]3C(=O)N(C)[C@@H](C(C)C)C(=O)N3[C@@H]1N(C=O)c1ccccc12 [DRIMENTINE H]	inactive	> 10	> 10	> 10	> 10	> 10
		CC(=O)O[C@H]1C(=O)[C@@]2(C)[C@H]([C@H](OC(=O)c3ccccc3)[C@]3(O)C[C@H](OC(=O)[C@H](O)[C@@H](NC(=O)c4ccccc4)c4ccccc4)C(C)=C1C3(C)C)[C@]1(OC(C)=O)CO[C@@H]1C[C@@H]2O [PACLITAXEL]		< 0.001	< 0.001		0.006	

SMILES	Activity [2]	Activity [4]	inhibition [1]	IC50 [3] [µM]	IC50 [5] [µM]	IC50 [6] [µM]	IC50 [7] [µM]	IC50 [8] [µM]
C=C1CC[C@H]2C(C)(C)CCC[C@]2(C)[C@H]1C[C@@]12C[C@H]3C(=O)N4CCC[C@H]4C(=O)N3[C@@H]1Nc1ccccc12 [DRIMENTINE C]	inactive	inactive	inactive	> 10	> 10	> 10	> 10	> 10
